What was measured:
HUVEC = assay: Intracellular total glutathione (GSH); settings: HUVEC, 24 HR
Protocol: (§1) Intracellular Glutathione (GSH) Levels: Intracellular glutathione levels were determined essentially as described by Griffith (1980) with modifications. At the end of the exposure period, the medium was removed from the cells and metaphosphoric acid (MPA) was added to each well. Plates were then shaken for 5 min at room temperature and stored at −20° C. until needed.
(§2) The sample plates were thawed just prior to analysis and centrifuged at >2000×g for at least 2 min. Sample aliquots were removed and transferred to a clean 96-well plate along with appropriate standard curve controls. Sample pH was neutralized just prior to analysis and each well received an aliquot of sodium phosphate reaction buffer containing EDTA, DTNB, NADPH, and glutathione reductase. The plates were mixed for 15-30 min at room temperature and glutathione content was determined calorimetrically with a Packard Fusion or equivalent reader at 415 nm.
(§3) Intracellular Glutathione (GSH) Levels: The assay is based on the concept that all GSH is oxidized to GSSG by DTNB reagent. Two molecules of GSH are required to make one molecule of GSSG. Total GSH was determined by reducing GSSG to 2GSH with glutathione reductase. A standard curve was prepared with oxidized glutathione (GSSG) over a range of concentrations. These concentrations are then converted to glutathione equivalents (GSX) essentially by multiplying the GSSG standard concentrations by 2. The amount of GSX expressed as pmoles/well was determined using the standard curve and regression analysis.
(§4) The test compound consisted of two parts mixed in a constant ratio of 5:1. The final test mixture consisted of Test mix 1 and Test mix 2, which were received as frozen solutions. The test mixture was tested in a ratio of 5:1 COMP A in five different cell types which included the following: SK-MEL28, human hepatocytes, HUVEC, C32, and NHEM cells. Cells were seeded into 96-well plates and cultured in medium containing 10% bovine serum. Following an equilibration period of 48 hr, the cells were treated with the test compound mix at concentrations of COMP A (μg/mL)=(250:50), (125:25), (25:12.5), (12.5:2.5), (2.5:1.25), (1.25:0.25), and (0.25:0.05) for 24 hr (overnight) at 37° C. in 5% CO2. […] Following an equilibration period of 4 hr, the cells were treated with the test compound mix at concentrations of COMP A (μg/mL)=(250:50), (125:25), (25:12.5), (12.5:2.5), (2.5:1.25), (1.25:0.25), and (0.25:0.05) for 24 hr (overnight) at 37° C. in 5% CO2.
(§5) Experimental Protocol: The test compounds were shipped on dry ice for testing. The compounds were stored frozen at −80° C. until needed. Dosing solutions were prepared in complete culture medium. SK-MEL28, human hepatocytes, HUVEC, C32, and NHEM cells were used as the test systems. Cells were seeded into 96-well plates and allowed to equilibrate for approximately 48 hr. Following the equilibration period the cells were exposed to the test compound mix at concentrations of COMP A (μg/mL)=(250:50), (125:25), (25:12.5), (12.5:2.5), (2.5:1.25), (1.25:0.25), and (0.25:0.05). Solubility was determined by Nephalometry techniques immediately after dosing and prior to harvesting the cells at 24 hr. Following the exposure period, the cells or their supernatant (culture medium) were analyzed for changes in cell proliferation, membrane leakage, mitochondrial function, oxidative stress, and apoptosis. The resultant exposure concentration response curves were graphed and analyzed for determining the concentration that produced a half maximal response or TC50.

human hepatocytes [1] = assay: Intracellular total glutathione (GSH); settings: 24 HR
Protocol: as §1, §2, §3, §4, §5

C32 cells = assay: Intracellular total glutathione (GSH); settings: C32, 24 HR
Protocol: as §1, §2, §3, §4, §5

human hepatocytes [2] = assay: Predicted Ctox from Tox-Panel; format: cell-based; settings: 24 HR
Protocol: Studies such as these indicate that a preferred concentration for setting Ctox is the highest concentration at which there is no observed effect on any of the indicators being measured in the cluster analysis, especially a 24-hour cluster analysis. […] It will be apparent that 24 hour assays are more time-effective, and consequently, the 24 hour NOEL/Ctox represents a preferred data point to select as Ctox in a CATS assay. It will also be apparent that, with further time studies, it may be possible to select an equally suitable Ctox at other CATS assay time points (e.g., between 24 and 72 hours, or less than 24 hours).
In certain embodiments, the predicting comprises performing concentration response analyses of measurements from at least three separate assays that are employed in the cluster analysis. […] From these concentration response analyses, the highest concentration of the chemical compound at which a measurable toxic effect of the chemical compound is not observable, i.e. NOEL, is determined and the Ctox is identified as the concentration that correlates to the NOEL. […]
The results are summarized in Tables 14-17 and in FIGS. 83-102. […] Assay response is continually monitored to assure reliable results. […]

C=C(C)[C@H]1Cc2c(ccc3c2O[C@@H]2COc4cc(OC)c(OC)cc4[C@@H]2C3=O)O1 [ROTENONE, Rotenone]
Percent Change in Total GSH (HUVEC): 11.3%
Percent Change in Total GSH (human hepatocytes [1]): 95.9%
Percent Change in Total GSH (C32 cells): 12.9%
Predicted Ctox (human hepatocytes [2]): 0.6 µM

CC[C@@]1(O)C(=O)OCc2c1cc1n(c2=O)Cc2cc3ccccc3nc2-1 [CAMPTOTHECIN, Camptothecin]
Percent Change in Total GSH (HUVEC): −85.8%
Percent Change in Total GSH (human hepatocytes [1]): −69.9%
Percent Change in Total GSH (C32 cells): −41.1%
Predicted Ctox (human hepatocytes [2]): 23 µM
